Assay results as given in patent US6720423B2, “Dihydrobenzofuran and dihydrobenzothiophene 2,4-pentadienoic acid derivatives having selective activity for retinoid X (RXR) receptors” (Allergan, Inc., priority 2002, dated 2004).

Key:
[1] = target: T1, RARα (Homo sapiens, UniProt P10276); test: ligand binding assay, RARα; conditions: second entry of cell, read-out: RAR Bind. Ki (nM) α
T1 sequence (P10276 1-462): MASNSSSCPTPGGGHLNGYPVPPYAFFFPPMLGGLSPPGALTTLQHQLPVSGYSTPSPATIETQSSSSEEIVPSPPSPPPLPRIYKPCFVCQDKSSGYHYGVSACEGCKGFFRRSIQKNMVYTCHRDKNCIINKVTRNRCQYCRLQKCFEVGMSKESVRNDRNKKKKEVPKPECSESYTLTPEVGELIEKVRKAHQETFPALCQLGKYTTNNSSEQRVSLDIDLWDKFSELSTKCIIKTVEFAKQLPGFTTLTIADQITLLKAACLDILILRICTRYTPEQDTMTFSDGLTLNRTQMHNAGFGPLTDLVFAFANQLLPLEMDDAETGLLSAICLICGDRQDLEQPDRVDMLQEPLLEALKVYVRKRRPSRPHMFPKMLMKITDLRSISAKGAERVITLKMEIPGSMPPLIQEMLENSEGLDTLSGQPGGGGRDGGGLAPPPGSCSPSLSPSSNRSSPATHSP
Description: (§1) A holoreceptor transactivation assay and a ligand binding assay which measure the antagonist/agonist like activity of the compounds of the invention, or their ability to bind to the several retinoid receptor subtypes, respectively, are described in published PCT Application No. WO WO93/11755 (particularly on pages 30-33 and 37-41) published on Jun. 24, 1993, the specification of which is also incorporated herein by reference. A detailed experimental procedure for holoreceptor transactivations has been described by Heyman et al. Cell 68, 397-406, (1992); Allegretto et al. J. Biol. Chem. 268, 26625-26633, and Mangelsdorf et al. The Retinoids: Biology, Chemistry and Medicine, pp 319-349, Raven Press Ltd., New York, which are expressly incorporated herein by reference. The results obtained in this assay are expressed in EC50 numbers, as they are also in the chimeric receptor transactivation assay. The results of ligand binding assay are expressed in Kd numbers. (See Cheng et al. Biochemical Pharmacology Vol. 22 pp 3099-3108, expressly incorporated herein by reference.)

[2] = target: T2, RARγ (Homo sapiens, UniProt P13631); test: ligand binding assay, RARγ; conditions: second entry of cell, read-out: RAR Bind. Ki (nM) γ
T2 sequence (P13631 1-454): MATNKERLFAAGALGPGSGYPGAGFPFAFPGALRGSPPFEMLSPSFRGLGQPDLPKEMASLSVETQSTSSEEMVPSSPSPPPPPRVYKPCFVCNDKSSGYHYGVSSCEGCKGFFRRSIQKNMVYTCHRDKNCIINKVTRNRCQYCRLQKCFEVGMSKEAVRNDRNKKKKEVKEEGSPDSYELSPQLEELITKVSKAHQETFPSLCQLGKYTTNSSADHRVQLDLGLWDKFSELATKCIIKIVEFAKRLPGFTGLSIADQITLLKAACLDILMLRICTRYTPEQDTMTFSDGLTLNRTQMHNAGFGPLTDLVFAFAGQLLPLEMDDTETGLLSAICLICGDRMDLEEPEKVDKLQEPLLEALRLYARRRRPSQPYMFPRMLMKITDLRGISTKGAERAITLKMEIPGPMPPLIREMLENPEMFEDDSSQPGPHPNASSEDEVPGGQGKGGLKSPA
Description: as §1

[3] = target: T3, RXRα (Homo sapiens, UniProt P19793); test: ligand binding assay, RXRα; conditions: last entry of cell, read-out: RXR Bind Ki (nM) α
T3 sequence (P19793 1-462): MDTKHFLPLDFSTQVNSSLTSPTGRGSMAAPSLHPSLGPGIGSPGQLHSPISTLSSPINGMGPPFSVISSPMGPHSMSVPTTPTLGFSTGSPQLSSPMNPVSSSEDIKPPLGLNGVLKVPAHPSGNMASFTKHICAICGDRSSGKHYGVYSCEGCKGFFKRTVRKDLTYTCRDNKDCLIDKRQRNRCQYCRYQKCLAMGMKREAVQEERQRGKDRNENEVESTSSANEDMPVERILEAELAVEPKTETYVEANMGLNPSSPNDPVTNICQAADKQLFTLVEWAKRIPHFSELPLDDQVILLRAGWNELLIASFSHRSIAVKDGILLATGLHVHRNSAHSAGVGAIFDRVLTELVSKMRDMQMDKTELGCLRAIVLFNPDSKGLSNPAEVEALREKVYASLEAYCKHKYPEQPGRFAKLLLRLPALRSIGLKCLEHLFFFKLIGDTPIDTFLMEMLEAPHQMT
Description: as §1

[4] = target: T4, RXRγ (UniProt P28705); test: ligand binding assay, RXRγ; design: other: RXRγ; last entry of cell; conditions: last entry of cell, read-out: RXR Bind Ki (nM) γ
T4 sequence (P28705 1-463): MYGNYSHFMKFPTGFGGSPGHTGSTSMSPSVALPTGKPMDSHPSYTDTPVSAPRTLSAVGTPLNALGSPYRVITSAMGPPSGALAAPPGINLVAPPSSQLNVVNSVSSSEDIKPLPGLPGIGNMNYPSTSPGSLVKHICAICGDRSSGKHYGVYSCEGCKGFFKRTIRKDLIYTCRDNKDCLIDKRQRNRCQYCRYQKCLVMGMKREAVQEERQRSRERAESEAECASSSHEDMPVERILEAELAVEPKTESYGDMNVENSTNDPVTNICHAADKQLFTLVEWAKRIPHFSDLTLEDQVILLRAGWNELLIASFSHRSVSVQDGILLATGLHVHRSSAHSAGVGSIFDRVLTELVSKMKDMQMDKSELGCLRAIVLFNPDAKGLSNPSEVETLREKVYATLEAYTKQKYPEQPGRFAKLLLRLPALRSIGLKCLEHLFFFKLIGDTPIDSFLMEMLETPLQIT
Description: as §1

| SMILES | Ki [1] [nM] | Ki [2] [nM] | Ki [3] [nM] | Ki [4] [nM] |
| --- | --- | --- | --- | --- |
| CC(/C=C/[C@@H]1C[C@]1(C)c1ccc2c(c1)C(C)(C)CO2)=C\C(=O)O [Compound 2, (6S,7S)-7-[5-(3,3-Dimethyl-2,3-dihydro-benzofuranyl)]-6.7-methano-3-methyl-octa-2E,4E-dienoic Acid] | > 10000 | > 10000 | 7.8 | 35 |
| CC(/C=C/[C@@H]1C[C@]1(C)c1cc(C)c2c(c1)C(C)(C)CO2)=C\C(=O)O [Compound 4, (6S,7S)-7-[5-(3,3,7-Trimethyl-2,3-dihydro-benzofuranyl)]-6,7-methano-3-methyl-octa-2E,4E-dienoic acid] | > 10000 | > 10000 | 6.3 | 9.9 |
| CCc1cc([C@@]2(C)C[C@H]2/C=C/C(C)=C/C(=O)O)cc2c1OCC2(C)C [Compound 6] | > 30000 | 13000 | 0.72 | 3.2 |
| CC(/C=C/[C@@H]1C[C@]1(C)c1cc(C(C)C)c2c(c1)C(C)(C)CO2)=C\C(=O)O [Compound 8, (6S,7S)-7-[5-(3,3-Dimethyl-7-iso-propyl-2,3-dihydro-benzofuranyl)]-6,7-methano-3-methyl-octa-2E,4E-dienoic Acid] | 42000 | 7510 | 1.7 | 8.6 |
| CC(/C=C/[C@@H]1C[C@]1(C)c1cc(C(C)(C)C)c2c(c1)C(C)(C)CO2)=C\C(=O)O [Compound 10, (6S,7S)-7-[5-(3,3-Dimethyl-7-t-butyl-2,3-dihydro-benzofuranyl)]-6,7-methano-3-methyl-octa-2E,4E-dienoic acid] | 11000 | 13000 | 0.8 | 1.3 |
| CC(/C=C/[C@@H]1C[C@]1(C)c1cc(CC(C)(C)C)c2c(c1)C(C)(C)CO2)=C\C(=O)O [Compound 12, 5-{(1S,2S) 2-[7-(2,2-Dimethyl-propyl)-3,3-dimethyl-2,3-dihydro-benzofuran-5-yl]-2-methyl-cyclopropyl}-3-methyl-penta-2E,4E-dienoic Acid] | 18000 | 8910 | 0.2 | 0.7 |
| CC(/C=C/[C@@H]1C[C@]1(C)c1cc(Cc2ccccc2)c2c(c1)C(C)(C)CO2)=C\C(=O)O [Compound 14, (6S,7S)-7-[5-(7-Benzyl-3,3-dimethyl-2,3-dihydro-benzofuranyl)]-6,7-methano-3-methyl-octa-2E,4E-dienoic Acid] | 8720 | 6650 | 0.8 | 9.2 |

Continued, values first:

| Ki [1] [nM] | Ki [2] [nM] | Ki [3] [nM] | Ki [4] [nM] | SMILES |
| --- | --- | --- | --- | --- |
| 8800 | 12000 | 0.3 | 1.9 | CC(/C=C/[C@@H]1C[C@]1(C)c1cc(CC2CCCCC2)c2c(c1)C(C)(C)CO2)=C\C(=O)O [Compound 16, (6S,7S)-7-[5-(7-Cyclohexylmethyl-3,3-dimethyl-2,3-dihydro-benzofuranyl)]-6,7-methano-3-methyl-octa-2E,4E-dienoic Acid] |
| 12000 | 9260 | 1.9 | 2 | CCCCCCc1cc([C@@]2(C)C[C@H]2/C=C/C(C)=C/C(=O)O)cc2c1OCC2(C)C [Compound 18, (6S,7S)-7-[5-(3,3-Dimethyl-7-hexyl-2,3-dihydro-benzofuranyl)]-6,7-methano-3-methyl-octa-2E,4E-dienoic acid] |
| > 10000 | > 10000 | 7.1 | 40 | CC(/C=C/[C@@H]1C[C@]1(C)c1cc(Br)c2c(c1)C(C)(C)CO2)=C\C(=O)O [Compound 20, (6S,7S)-7-[5-(7-Bromo-3,3-dimethyl-2,3-dihydro-benzofuranyl)]-6,7-methano-3-methyl-octa-2E,4E-dienoic Acid] |
| > 10000 | > 5260 | 2.3 | 6.2 | CC(/C=C/[C@@H]1C[C@]1(C)c1cc(-c2ccccc2)c2c(c1)C(C)(C)CO2)=C\C(=O)O [Compound 22, 6S,7S)-7-[5-(3,3-Dimethyl-7-phenyl-2,3-dihydro-benzofuranyl)1-6,7-methano-3-methyl-octa-2E,4E-dienoic acid] |
| > 10000 | > 10000 | 0.7 | 4.8 | CC(/C=C/[C@@H]1C[C@]1(C)c1cc(-c2c(C)cccc2C)c2c(c1)C(C)(C)CO2)=C\C(=O)O [Compound 24, 5-{(1 S 2S)-2-[7-(2,6-Dimethyl-phenyl)-3,3-dimethyl-2,3-dihydro-benzofuran-5-yl]-2-methyl-cyclopropyl}-3-methyl-penta-2E,4E-dienoic acid] |
| > 10000 | > 10000 | 1.2 | 6.1 | CC(/C=C/[C@@H]1C[C@]1(C)c1cc(-c2ccccc2C)c2c(c1)C(C)(C)CO2)=C\C(=O)O [Compound 26, 5-[(1S,2S)-2-(3,3-Dimethyl-7-o-tolyl-2,3-dihydro-benzofuran-5-yl)-2-methyl-cyclopropyl]-3-methyl-penta-2E,4E-dienoic acid] |
| 2620 | 9540 | 35 | – | CCCCCCCc1ccccc1-c1cc([C@@]2(C)C[C@H]2/C=C/C(C)=C/C(=O)O)cc2c1OCC2(C)C [Compound 28] |
| > 10000 | > 10000 | 129 | 69.9 | CC(/C=C/[C@@H]1C[C@]1(C)c1cc(-c2ccc(C(C)(C)C)cc2)c2c(c1)C(C)(C)CO2)=C\C(=O)O [Compound 30, 5-{(1S, 2S)-2-[7-(4-tert-Butyl-phenyl)-3,3-dimethyl-2,3-dihydro-benzofuran-5-]-2-methyl-cyclopropyl}-3-methyl-pent-2E,4E-dienoic Acid] |
| 29000 | > 10000 | 66 | 227 | COc1ccc(-c2cc([C@@]3(C)C[C@H]3/C=C/C(C)=C/C(=O)O)cc3c2OCC3(C)C)cc1 [Compound 32, (E)-3-((E)-2-{(1S,2S)-2-[7-(4-Methoxy-phenyl)-3,3-dimethyl-2,3-dihydro-benzofuran-5-yl]-2-methyl-cyclopropyl}-vinyl)-but-2-enoic acid] |
| 23000 | 25000 | 0.5 | 1.5 | CC(/C=C/[C@@H]1C[C@]1(C)c1cc(-c2ccc(F)cc2)c2c(c1)C(C)(C)CO2)=C\C(=O)O [Compound 34, (E)-3-((E)-2-{(1S,2S)-2-[7-(4-Fluoro-phenyl)-3,3-dimethyl-2,3-dihydro-benzofuran-5-yl]-2-methyl-cyclopropyl}-vinyl)-but-2-enoic acid] |
